# Measurements taken from ChEMBL document CHEMBL1201862, “PubChem BioAssay data set” (2004).
# Activity calls are given as the source filed them.
# Key:
# [1] = alpha-synuclein stem-loop luciferase translation blockers – H4 neuroglioma cells, luminescence, confirmation (AID 1988); format: functional, cell-based
# [2] = target: G-protein coupled receptor 35 (Homo sapiens, UniProt Q9HC97); assay: inhibition of zaprinast-stimulated GPR35 beta-arrestin translocation – imaging, U2OS, beta-arrestin-GFP, zaprinast agonist, primary screen (AID 2058); format: functional;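 further: antagonist potency meaning inhibition of agonist-induced arrestin redistribution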
# [3] = target: T1, Microphthalmia-associated transcription factor (Homo sapiens, UniProt O75030); assay: reducers of TRPM1 reporter luminescence, concentration series – cell-based, SK-MEL-5, cherry-picked, set 3, MITF inhibitor project, dose response (AID 493073); format: functional;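 further: SK-MEL-5 melanoma cells with luciferase driven by the MITF target TRPM1 promoter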
# T1 sequence (O75030 whole entry): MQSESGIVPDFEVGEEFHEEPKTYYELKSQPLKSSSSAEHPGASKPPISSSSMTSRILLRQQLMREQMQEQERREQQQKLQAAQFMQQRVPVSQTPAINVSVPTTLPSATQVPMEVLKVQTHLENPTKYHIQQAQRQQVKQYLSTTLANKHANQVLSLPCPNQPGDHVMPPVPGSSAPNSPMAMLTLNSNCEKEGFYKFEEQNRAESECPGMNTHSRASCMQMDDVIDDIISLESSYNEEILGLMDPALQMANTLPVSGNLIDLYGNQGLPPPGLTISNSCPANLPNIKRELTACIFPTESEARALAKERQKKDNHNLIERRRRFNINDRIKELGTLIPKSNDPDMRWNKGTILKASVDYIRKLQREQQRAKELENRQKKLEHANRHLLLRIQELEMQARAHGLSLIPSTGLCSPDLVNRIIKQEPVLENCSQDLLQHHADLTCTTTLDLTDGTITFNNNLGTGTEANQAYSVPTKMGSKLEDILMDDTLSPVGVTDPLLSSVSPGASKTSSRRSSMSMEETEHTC
# [4] = test system: BJ; assay: cells; format: functional, cell-based; conditions: Homo sapiens
# [5] = DRD fibroblast viability loss – cell-based, non-viral oncogenic, luminescence, dose response (AID 1934); format: functional; conditions: Homo sapiens
# [6] = reduction of Shn3 3'UTR-driven luciferase in osteoblasts – cell-based, Clone20 osteoblasts, firefly luciferase, cherry-picked, dose response (AID 624132); format: functional;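 further: firefly luciferase luminescence from reporter carrying the Shn3 3'UTR in osteoblasts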
# [7] = loss of viability in HepG2 cells – cell-based, CellTiter-Glo, cherry-picked, cytotoxicity control for Shn3 inhibitor project, dose response (AID 624134); format: functional
# [8] = Trypanosoma cruzi growth suppression in host cells – NIH3T3 host cells, beta-gal luminescence, confirmation (AID 2044); format: functional, cell-based;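 further: intracellular parasites grown in NIH/3T3 mouse fibroblasts as host cells; luminescent beta-galactosidase reporter signal from transgenic T. cruzi replicating inside host cells; inhibitors lower the luminescence signal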
# [9] = test system: BJ; assay: BJ-TERT fibroblast viability loss – cell-based, RAS-independent, luminescence, dose response (AID 1933); format: functional; conditions: Homo sapiens
# [10] = non-specific 3'UTR reporter inhibition in Clone20-Shn3RL – cell-based, Renilla luciferase, cherry-picked, counter-screen for Shn3 inhibitor project, dose response (AID 624133); format: functional
# [11] = target: T2, High affinity choline transporter 1 (Homo sapiens, UniProt Q9GZV3); assay: human choline transporter blockers, potency – cell-based, 5-point CRC, membrane potential dye, dose response (AID 504840); format: functional
# T2 sequence (Q9GZV3 whole entry): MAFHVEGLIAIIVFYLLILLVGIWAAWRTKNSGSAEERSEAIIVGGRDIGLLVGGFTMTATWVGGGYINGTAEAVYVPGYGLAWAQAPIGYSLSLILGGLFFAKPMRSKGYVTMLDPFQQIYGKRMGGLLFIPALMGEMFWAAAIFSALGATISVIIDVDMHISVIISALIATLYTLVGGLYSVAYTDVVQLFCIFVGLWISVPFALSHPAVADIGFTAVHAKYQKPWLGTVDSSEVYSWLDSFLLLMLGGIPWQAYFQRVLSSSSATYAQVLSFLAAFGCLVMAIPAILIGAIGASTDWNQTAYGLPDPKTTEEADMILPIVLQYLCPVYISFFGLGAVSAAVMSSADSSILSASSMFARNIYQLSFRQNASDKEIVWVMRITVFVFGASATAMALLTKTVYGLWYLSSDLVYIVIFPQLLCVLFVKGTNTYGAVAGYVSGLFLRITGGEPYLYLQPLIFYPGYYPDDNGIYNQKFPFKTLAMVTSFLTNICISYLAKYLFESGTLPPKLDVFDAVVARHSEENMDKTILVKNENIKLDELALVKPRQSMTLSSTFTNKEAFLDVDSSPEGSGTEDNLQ
# [12] = test system: INS1; assay: INS-1E survival protection against cytokine death – cell-based, luminescence, retest, dose response (AID 449756); format: functional; conditions: Rattus norvegicus;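 further: cell death triggered by IL-1 beta plus TNF-alpha plus IFN-gamma mixture; protective hits raise ATP signal compared with cytokine alone wells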
# [13] = target: G-protein coupled receptor 55 (Homo sapiens, UniProt Q9Y2T6); assay: selective activators of receptor GPR55 – imaging, U2OS cells, beta-arrestin-GFP redistribution, primary screen (AID 1961); format: functional
# [14] = test system: BJ; assay: BJ-TERT-LT-ST fibroblast viability loss – cell-based, RAS-independent, luminescence, dose response (AID 1935); format: functional; conditions: Homo sapiens;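 further: BJ fibroblasts immortalized with TERT plus LT and ST oncogenes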
# [15] = test system: A-375; assay: proliferation inhibition in MITF-low A375 cells – cell-based, cherry-pick samples, set 2, counter-screen for MITF modulator project, dose response (AID 540335); format: functional; conditions: Homo sapiens
# [16] = target: Sphingosine 1-phosphate receptor 4 (Homo sapiens, UniProt O95977); assay: Fluorescence dose response cell-based high throughput screening assay for antagonists of the Sphingosine 1-Phosphate Receptor 4 (S1P4). [Related pubchem assays: 1524 (Confirmation in triplicates.), 1510 (Primary screen.)]; format: functional
# [17] = Luminescence Cell-Based Dose Response HTS to Identify Inhibitors of 5'UTR Stem-Loop Driven Prion Protein mRNA Translation in H4 Neuroglioblastoma Cells. [Related pubchem assays: 1827 (Project Summary), 1813 (Primary HTS)]; format: functional
# [18] = NIH3T3 cell viability loss – ATP luminescence, mouse fibroblasts, counter-screen, dose response (AID 2010); format: functional, cell-based;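 further: cells exposed to compound for about 90 hours before reading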
# [19] = target: Sphingosine 1-phosphate receptor 1 (Homo sapiens, UniProt P21453); format: functional;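 further: Tango beta-arrestin reporter U2OS cells stimulated with S1P near its EC80; inhibitor potency meaning antagonism of receptor activation by the natural agonist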
# [20] = target: T2, High affinity choline transporter 1; assay: human choline transporter blockers, potency – cell-based, 10-point CRC, membrane potential dye, dose response (AID 588401); format: functional;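 further: membrane potential dye fluorescence of choline-evoked depolarization via CHT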
# [21] = luciferase reporter signal suppression in cells – H4 neuroglioma cells, luminescence, dose response (AID 1990); format: functional, cell-based
# [22] = target: Neuropeptides B/W receptor type 1 (Homo sapiens, UniProt P48145); assay: human NPBW1 receptor blockade, IC50 – cell-based, fluorescence, dose response, set 6, late-stage follow-up (AID 588583); format: functional
# [23] = target: Melanin-concentrating hormone receptor 1 (Homo sapiens, UniProt Q99705); assay: Late-stage fluorescence-based counterscreen for antagonists of the G-protein coupled receptor 7 (GPR7): cell-based dose response assay to identify antagonists of the melanin-concentrating hormone receptor 1 (MCHR1) Set 6.; format: functional
# Chain of Melanin-concentrating hormone receptor 1 (Q99705 whole entry): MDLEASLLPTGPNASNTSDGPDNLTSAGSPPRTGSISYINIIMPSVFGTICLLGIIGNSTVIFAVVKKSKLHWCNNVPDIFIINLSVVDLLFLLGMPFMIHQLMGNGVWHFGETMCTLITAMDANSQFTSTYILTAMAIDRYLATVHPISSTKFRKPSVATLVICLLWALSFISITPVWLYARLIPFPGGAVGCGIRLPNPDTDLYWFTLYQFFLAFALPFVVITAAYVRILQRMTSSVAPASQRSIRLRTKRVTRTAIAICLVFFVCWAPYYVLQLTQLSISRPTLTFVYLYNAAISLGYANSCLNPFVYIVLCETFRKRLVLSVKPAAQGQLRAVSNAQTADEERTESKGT
# Chain of Neuropeptides B/W receptor type 1 (P48145 whole entry): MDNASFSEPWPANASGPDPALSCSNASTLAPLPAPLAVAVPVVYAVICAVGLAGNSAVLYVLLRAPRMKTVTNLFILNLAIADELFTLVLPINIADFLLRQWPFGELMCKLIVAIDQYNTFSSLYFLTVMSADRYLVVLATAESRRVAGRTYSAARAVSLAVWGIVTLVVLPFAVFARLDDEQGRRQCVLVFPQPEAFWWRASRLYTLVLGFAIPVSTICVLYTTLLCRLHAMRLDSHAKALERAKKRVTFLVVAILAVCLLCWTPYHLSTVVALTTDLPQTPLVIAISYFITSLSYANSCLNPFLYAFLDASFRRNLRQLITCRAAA
# Chain of Sphingosine 1-phosphate receptor 4 (O95977 whole entry): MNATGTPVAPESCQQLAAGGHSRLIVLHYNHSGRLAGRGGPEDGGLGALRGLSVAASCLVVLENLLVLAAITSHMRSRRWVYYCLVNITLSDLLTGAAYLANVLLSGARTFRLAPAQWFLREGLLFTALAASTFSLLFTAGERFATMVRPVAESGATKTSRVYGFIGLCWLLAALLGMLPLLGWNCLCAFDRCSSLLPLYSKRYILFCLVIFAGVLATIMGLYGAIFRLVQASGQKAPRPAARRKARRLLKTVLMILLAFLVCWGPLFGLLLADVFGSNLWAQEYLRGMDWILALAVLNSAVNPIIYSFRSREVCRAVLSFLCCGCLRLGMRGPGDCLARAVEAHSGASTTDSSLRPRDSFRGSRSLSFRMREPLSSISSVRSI
# Chain of G-protein coupled receptor 35 (Q9HC97 whole entry): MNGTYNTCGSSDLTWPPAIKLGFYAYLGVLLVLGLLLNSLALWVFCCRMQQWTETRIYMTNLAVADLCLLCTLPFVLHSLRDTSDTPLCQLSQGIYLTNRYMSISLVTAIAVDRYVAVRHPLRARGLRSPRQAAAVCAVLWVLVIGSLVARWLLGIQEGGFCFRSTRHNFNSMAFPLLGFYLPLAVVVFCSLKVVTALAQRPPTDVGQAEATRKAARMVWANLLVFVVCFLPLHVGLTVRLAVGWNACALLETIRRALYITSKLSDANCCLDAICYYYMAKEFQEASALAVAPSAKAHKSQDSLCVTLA
# Chain of G-protein coupled receptor 55 (Q9Y2T6 whole entry): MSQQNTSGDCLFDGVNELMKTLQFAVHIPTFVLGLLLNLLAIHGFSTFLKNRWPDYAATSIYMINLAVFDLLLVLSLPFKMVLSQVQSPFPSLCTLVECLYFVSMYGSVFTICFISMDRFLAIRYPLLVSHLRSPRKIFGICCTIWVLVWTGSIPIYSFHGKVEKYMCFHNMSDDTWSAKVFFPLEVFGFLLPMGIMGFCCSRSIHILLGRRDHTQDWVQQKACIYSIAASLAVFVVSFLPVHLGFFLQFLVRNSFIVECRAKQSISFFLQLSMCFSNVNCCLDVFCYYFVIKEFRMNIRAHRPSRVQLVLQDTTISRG
# Chain of Sphingosine 1-phosphate receptor 1 (P21453 whole entry): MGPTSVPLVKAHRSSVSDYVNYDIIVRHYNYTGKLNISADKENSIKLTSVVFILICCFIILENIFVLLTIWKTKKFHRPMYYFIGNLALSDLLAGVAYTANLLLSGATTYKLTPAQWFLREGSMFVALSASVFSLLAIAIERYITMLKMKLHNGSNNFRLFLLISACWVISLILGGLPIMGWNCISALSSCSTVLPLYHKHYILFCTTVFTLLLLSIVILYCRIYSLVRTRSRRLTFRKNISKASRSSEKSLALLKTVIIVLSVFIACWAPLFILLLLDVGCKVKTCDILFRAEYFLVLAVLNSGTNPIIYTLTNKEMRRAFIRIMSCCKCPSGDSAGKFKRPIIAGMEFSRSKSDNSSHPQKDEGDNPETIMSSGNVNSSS
compound,measurement,setting,value
CC1=CC2/C=C(\C)CCC(O)C(O)/C=C/C(=O)C23C(=O)NC(CC(C)C)C3C1C (stereo not drawn),EC50,[1],9.67 µM (active)
same,IC50,[2],3.06 µM (active)
same,AC50,[3],6.58 µM (active)
same,EC50,[4],6.51 µM (active)
same,EC50,[5],4.94 µM (inconclusive)
same,AC50,[6],5.29 µM (active)
same,AC50,[7],8.15 µM (active)
same,EC50,[8],4.09 µM (active)
same,EC50,[9],4.94 µM (active)
same,AC50,[10],6.91 µM (active)
same,IC50,[11],4.38 µM (active)
same,AC50,[12],6.6 µM (active)
same,EC50,[13],> 32 µM (inactive)
same,EC50,[14],4.8 µM (inconclusive)
same,AC50,[15],10.4 µM (active)
same,IC50,[16],0.648 µM (active)
same,EC50,[17],8.86 µM (active)
same,EC50,[18],4.73 µM (active)
same,IC50,[19],17.6 µM (not active)
same,IC50,[20],3.16 µM (active)
same,EC50,[21],> 120 µM (not active)
N#CC(Cc1ccccc1)c1c(Cl)cnn(Cc2cccc3ccccc23)c1=O (stereo not drawn),IC50,[22],~2.06 µM (active)
same,IC50,[23],~2.06 µM (active)
